Values quoted from earlier work, collected in patent publication US9801874B2, “Method for the preparation of liposome encapsulated vincristine for therapeutic use” (Spectrum Pharmaceuticals, Inc., priority 2012, dated 2017).
Where a name gives a salt, the structure may show the parent alone.

Conditions: 1:1 sulfate salt, crystalline powder

solubility in water: soluble in water
Compound: CCC12C=CCN3CC[C@@]4(c5cc([C@@]6(C(=O)OC)CC7CN(CCc8c6[nH]c6ccccc86)C[C@](O)(CC)C7)c(OC)cc5N(C=O)[C@H]4[C@@](O)(C(=O)OC)C1OC(C)=O)C32 (stereo partly shown) [Vincristine sulfate, 22-oxovincaleukoblastine]
